Data reported in patent US9795585B2, “Methods of using L-butylphthalide for the prevention and treatment of cerebral ischemia disease” (priority 2004, dated 2017).
Where “and” joins values, the source holds several entries; their conditions need not be identical. Equal entries are not always repeated.

Tests used:
[1] = system: ischemic brain of decapitated mice; assay: Ischemic cerebral metabolism of energy induced by decapitation of mice; assay type: in vivo, KunMing mice; conditions: NBP 50 and 100 mg/kg oral, sodium Phenobarbital 225 mg/kg ip.; decapitated 30 minutes after administration; 15 seconds ischemia; vs control group
Protocol: Experimental Animals: KunMing mice.
Test drug: injectable L-butylphthalide was formulated into an emulsion with Tween-80.
Experimental Methods: KunMing mice of 10 to 22 g were divided into 8 groups with 10 mice per group. dl-, d-, and l-NBP (50 and 100 mg/kg/d), sodium Phenobarbital (225 mg/kg ip.) and the vehicle were orally administered. Thirty minutes after administration, the mice were decapitated.
The time between the decapitation and homogenation, which was 15 seconds, was regarded as cerebral ischemic time. Centrifugation and isolation were conducted by the method of Folbergrova, and the contents of lactic acid, ATP and PCr were determined by enzymological method.

[2] = system: cerebral apoplexy in spontaneous hypertension rats; assay: Cerebral apoplexy in salt-loaded spontaneous hypertensive rats; assay type: in vivo
Protocol: Experimental Animals: spontaneous hypertensive rats of 6 weeks old. Experimental Methods: Spontaneous hypertensive rats of 6 weeks old were divided into 8 groups with 10 rats per group. 0.8 to 0.9 g per day of common salt was administered starting from week 6. […] The scores of neurological deficit and the time of death were recorded.

normal rats = assay type: in vivo, Male wistar rats; conditions: 15 and 30 mg/kg oral; for cerebral blood flow rate in normal rats: 30 minutes after administration
Protocol: (§1) Experimental Animals: Male wistar rats.
(§2) Experimental Equipments: SXP operating microscope, 62TZ-V model high frequency electrotome, solid positioner, Diamond Electro-Tech chemical microsensor 1231, two channel physiological parameter recorder.
(§3) Experimental Methods: • (1) dl-, d-, and l-NBP (15 and 30 mg/kg) and the vehicle were orally administered to the normal rats, and the changes of cerebral blood flow at different time after the administration were measured. • (2) ligation of cerebral artery was conducted on rats according to the method of Tamura. Oral administration was performed at 10 min after the operation. The rats were divided into 9 groups, which were normal group, pseudo-operation group, vehicle control group, and groups of dl-, d-, and l-NBP (15 and 30 mg/kg).

[3] = system: cerebral ischemia-reperfusion rats; assay: Behavioral disorder and cerebral infarct area in cerebral ischemia-reperfusion rats (MCAO by nylon suture, 1.5 h); assay type: in vivo, male Wistar rats; conditions: for neurological deficit scores (effect in words) / potency on neurological deficit scores compared among l, dl and d-NBP: 24 hours after intravenous injection; for reduction of cerebral infarct area / ED50 (cerebral infarct area): i.v., vs model control group; for cerebral infarct area (effect in words): intravenous administration, effect increases with dose
From the text: Experimental Animal: The same as Example 1
Experimental Equipments: The same as Example 7
Experimental Methods: The rats were anesthetized, and fixed in lateral decubitus position. Under the operating microscope, a midline neck skin incision was made to expose the left common cartotid artery. The surrounding nerves and fascia from the bifurcation of common carotid artery to the vascular of basis cranii were removed.
The internal carotid artery was then separated and carefully separated free from vagus nerve. Pterygopalatine artery was ligated at the root of the internal carotid artery. A 6# needle for injection containing 3# nylon suture (diameter of 0.285 mm) was punctured into the free end of the external carotid artery, advancing the nylon suture into the blood vascular. The needle was carefully withdrawn, and the nylon suture was guided into the internal carotid artery from the distal end of the external carotid artery up till to Willis ring, so as to effectively block the middle cerebral artery.
Depending on the body weight, the distance from the inserted nylon suture to the bifurcation of common carotid artery was 18 to 20 mm. The free end of the external carotid artery and the nylon suture therein were ligated together, in order to prevent bleeding. The muscle and the skin were then sutured layer by layer, and penicillin was dropped to prevent infection. To effectively block the middle cerebral artery, the tip of the nylon suture was made round by burning with the flame, and coated with 0.1% of poly-L-lysine. The nylon suture was baked in a 60° C. oven for 1 hour.
Due to the ability of poly-L-lysine to binding the cell and the protein to the plastic surface, and thus allow the negative charged nylon suture changing into a positive charged one and attract the anion ionic part of the endothelial cell, the nylon suture was closely bond to the endothelial surface, so as to prevent the leakage of the blood from the surrounding of the suture. Only the internal carotoid artery was separated from the animals of pseudo-operation group.
At 1.5 hours after the initiation of MCAO, the nylon suture within the lumen of the internal carotoid artery was carefully withdrawn, and the internal carotoid artery was allowed to reperfusion. The rats were then placed back into the cage.

[4] = system: cerebral edema induced by cerebral artery ligation in rats; assay: Cerebral edema induced by ligation of right middle cerebral artery; assay type: in vivo, male Wistar rats
Protocol: Experimental Animals: the same as Example 1. Experimental Equipments: Oxygen analyzer. Experimental Methods: Cerebral edema was induced by the ligation of right middle cerebral artery of rats. After 15 minutes, dl-, d-, and l-NBP (40 and 80 mg/kg) were orally administered. The rats were sacrificed after 24 hours. The forebrain was removed, and the cerebral hemispheres on the left and right side were weighed. Dry weight was obtained by baking for 24 hours under 100° C. The weight of water in the brain tissue was thus calculated by subtracting of dry weight from wet weight. Then, the tissues was nitrified for 4 hours, and pH was adjusted by using HCl. Next, the ion selective electrode was connected onto the oxygen analyzer, and the concentrations of Na^+ and K^+ in the brain tissue were measured.

[5] = system: cerebral injury-induced cerebral ischemia in rats; assay: Neural symptoms induced by cerebral injury in rats; assay type: in vivo, male Wistar rats; conditions: 50 mg/kg oral 5 minutes after cerebral injury; scored after 24 hours; vs vehicle control
Protocol: Experimental Animals: male Wistar rats
Experimental Methods: Cerebral injury in rats was caused by allowing a cone-shaped metal object weighing 220 g to freely fall from a position of 30 cm height and to strike the skull cap behind the left coronal suture. dl-, d-, and l-NBP (50 mg/kg) and the vehicle (control group) were orally administered after 5 minutes, and the behavioral changes were scored after 24 hours.

[6] = system: ischemic region (corpus striatum) of rats with blocked cerebral artery; assay: Focal cerebral blood flow after ligation of cerebral artery (method of Tamura); assay type: in vivo, Male wistar rats
Protocol: as §1, §2, §3

[7] = system: focal cerebral ischemia in rats; assay: Memory disorder induced by focal cerebral ischemia (shuttle box, artery ligation by method of Tamura); assay type: in vivo, male Wistar rats; conditions: 15 and 30 mg/kg oral 15 min after operation; observed after 24 hours; vs vehicle control
Protocol: Experimental Animal: The same as Example 1. Experimental Equipment: Shuttle box. Experimental Methods: • 1. Rats were trained to acquire learning and memory; • 2. Artery ligation: Artery ligation was conducted on rats according to the method of Tamura. After 24 hours, the experiment of learning as in step (1) was repeatedly conducted on rats. • 3. Grouping and administration: the rats were divided into 9 groups, which were normal group, pseudo-operation group, ischemia control group, and groups of dl-, d-, and l-NBP (15 and 30 mg/kg). The rats were orally administered at 15 min after the operation, and the changes of latency of active and passive avoidance response were observed after 24 hours.

[8] = 40 and 80 mg/kg oral 15 minutes after ligation, sacrificed after 24 hours
[9] = 25 and 50 mg/kg/d oral until 3 weeks after apoplexy, dose-dependent

Row | Compound | content of ATP in the brain [1] | content of PCr in the brain [1] | content of lactic acid in the brain [1] | cerebral blood flow rate in normal rats (normal rats) | neurological deficit scores (effect in words) [3] | potency on neurological deficit scores compared among l, dl and d-NBP [3] | reduction of cerebral infarct area ([3]; first of three doses) | ED50 (cerebral infarct area) [3] | cerebral infarct area (effect in words) [3] | reduction of cerebral infarct area ([3]; second of three doses) | reduction of cerebral infarct area ([3]; third of three doses) | content of K+ in the brain [4, 8] | content of Na+ in the brain [4, 8] | content of water in the brain [4, 8] | neural symptoms (behavioral changes scored) [5] | times of active avoidance [7] | other results
1 | CCCCC1OC(=O)c2ccccc21 (racemic) [dl-NBP, butylphthalide] | no such significant effect | no such significant effect | no such significant effect | no such effects | improvement | no significant difference | 37.9% and 34.8% | 5.5 mg/kg and 5.7 mg/kg | significantly reduce | 48.5% and 46.5% | 59.2% and 60.9% | no significant effect | no significant effect | no significant effect | no significant effect | not observed | preventive and therapeutic effect on cerebral apoplexy (overall) ([2]; 25 and 50 mg/kg/d oral): merely had such effect at relatively high doses; content of Na+ in the brain ([4]; 80 mg/kg oral, decrease seen): no statistical significance; content of water in the brain ([4]; 80 mg/kg oral, decrease seen): no statistical significance; content of K+ in the brain ([4]; 80 mg/kg oral, increase seen): no statistical significance; focal blood flow in the corpus striatum on the side of the blocked cerebral artery ([6]; 30 mg/kg oral 10 min after operation, similar increase seen): no statistical significance
2 | CCCC[C@@H]1OC(=O)c2ccccc21 [l-NBP, L-butylphthalide] | increased | increased | significantly decreased | significantly increased | improvement | no significant difference | 40.8% | 3.8 mg/kg | significantly reduce | 57.0% | 68.5% | increase | significantly decrease | significantly decrease | significantly reduced | significantly increased | time of the occurrence of cerebral apoplexy ([2]; 25 and 50 mg/kg/d oral from week 8, vs vehicle control): significantly delay; neurological deficit after cerebral apoplexy [2, 9]: reduce; viability after the occurrence of cerebral apoplexy [2, 9]: significantly increase; time after administration till which cerebral blood flow rate was maintained at a relative high level (normal rats; normal rats): 50 min; effect on cerebral infarct area relative to d-NBP ([3]; as calculated by ED50): about 1.5 times; focal blood flow in the corpus striatum on the side of the blocked cerebral artery ([6]; 15 and 30 mg/kg oral 10 min after operation, vs vehicle control, dose-dependent): significantly increase
